Laboratory results: patent publication EP0139358B1, “N6-substituted diarylalkyl adenosines, processes for their production and pharmaceutical compositions comprising the same” (priority 1983, dated 1985)
pEC50: −log10 of the molar value. Like-named read-outs stand apart in the source and are kept apart here.

Legend:
rat heart = experiment: Coronary blood flow (PCS2A): isolated perfused heart; settings: Rattus norvegicus
[1] = test system: Long-Evans rats or squirrel-monkeys; experiment: Antipsychotic lever-push shock avoidance protocol (SIDR); assay type: in vivo; settings: Rattus norvegicus, read-out: SIDR ED50
Method: Representative compounds of the invention (identified in the Examples) were also tested for antipsychotic activity according to the following protocol (SIDR). […] Mature male Long-Evans rats or squirrel-monkeys are conditioned to push a lever in order to avoid a painful electric footshock. If the animal fails to push the lever, he receives a shock every ten seconds until the lever is pushed. Shocks can be terminated by pushing the lever. Thereafter, as long as the lever is pushed at least once every 20 seconds, there will be no shock. Each animal acts as its own control; one weekly session is used to establish baseline behavior and another session later in the week is used as a drug session. Once patterns of avoidance are established, the effects of standard and unknown compounds are studied. All events are electronically programmed and the response to these events counted or used as feedback to the program.

With `OC[C@H]1O[C@@H](n2cnc3c(NCC(c4ccccc4)c4ccccc4)ncnc32)[C@H](O)[C@@H]1O` [Example 1, N^6-(2,2-Diphenylethyl)adenosine] as the compound, how does the activation at 0.001 µM (rat heart; read-out: CF) read?
Its activation at 0.001 µM is 7%.

And the activation at 0.003 µM (rat heart; read-out: CF)?
Its activation at 0.003 µM is 15%.

What about the activation at 0.01 µM (rat heart; read-out: CF) of the same compound?
The activation at 0.01 µM was 32%.

What about the activation at 0.1 µM (rat heart; read-out: CF) of the same compound?
The activation at 0.1 µM was 43%.

And the activation at 1 µM (rat heart; read-out: CF)?
The activation at 1 µM was 50%.

And the pEC50 (rat heart; read-out: PCS2A CF ED50)?
Its pEC50 is 6.00.

And the pEC50 (rat heart; read-out: PCS2A HR ED50)?
The pEC50 was 5.70.

And the ED50 [1]?
The ED50 was 2.5 mg/kg.
